# Laboratory results reported in US20120264159A1, “SCREENING SYSTEM FOR MODULATORS OF HER2 MEDIATED TRANSCRIPTION AND HER2 MODULATORS IDENTIFED THEREBY” (BUCK INSTITUTE FOR AGE RESEARCH, priority 2001, published 2012).
# Entries after “also recorded” stand apart in the source; their conditions may differ.
# Legend:
# [1] = system: carcinogen-induced mammary cancer; conditions: up to 5 mg/kg, cited from earlier work
# [2] = system: MCF/R06pGL-9 cells; assay: MTT cell viability assay on MCF/R06pGL-9 cells; assay type: cell-based, human
# Source text: A luciferase reporter plasmid (designated RO6pGL-luc) was constructed by inserting the ˜500 bp SmaI-SmaI fragment of the human ErbB2 proximal promoter (12) into the pGL3Basic plasmid driving a luciferase reporter gene, as has been described (10). R06pGL-luc and a plasmid expressing neomycin phosphotransferase were co-transfected into the MCF-7 cells (ATCC) using Effectene (Qiagen). Cells were selected for stable expression of luciferase and neomycin (G418)-resistance. Single cell clones including MCF/R06pGL-9 were isolated and maintained in DME H-16 medium supplemented with 10% fetal bovine serum, 10 μg/ml insulin, 100 μg/ml penicillin/streptomycin, and 500 μg/ml G418. MTT cell viability and luciferase expression assays on the MCF/RO6pGL-9 sublime were performed after plating the subline into 96-well culture dishes at a density of 10^4 cells/well in 100 μL medium. After 24 hour cell plating, TSA from stock DMSO solution was diluted into 100 μL medium and then added into eight replicate wells at the indicated concentrations. […] The reaction was quantified by absorbance at 570 nm measured with a microplate reader (Molecular Devices) and the mean (±SD) optical density recorded after normalization by the vehicle treated controls. […]
# [3] = system: ErbB2 protein; assay: Western blot of 185 kDa ErbB2 protein levels in breast cancer cell lines; assay type: cell-based, human
# Description: The conserved and singular DNase I hypersensitivity sites found in the proximal ErbB2 and ESX promoters (12,15) were assayed as before (12). Briefly, following culture treatment of cells, nuclei isolated by mild detergent lysis in a buffer containing 10 mM Hepes pH 7.9, 1.5 mM MgCl2, 10 mM KCl, 0.4% NP-40, 10% glycerol and 1 mM DTT. Partial DNase I digestions were carried out by varying DNase I treatment times (0-15 minutes at 37( ) at a fixed DNase I concentrations (0.5-1.0 units per 10^6 nuclei). After purifying and restricting the DNA, it was electrophoresed through 0.7% agarose gels and blotted onto nylon membranes, UV-crosslinked and hybridized with randomly ^32P-labelled ErbB2 and ESX promoter probes, as similarly performed for routine Southern blotting. For Northern blotting, total (treated vs. control) cell RNA (10 μg/sample lane) was isolated using TRIzol (Invitrogen) according to manufacturer's specifications, electrophoresed into 1% agarose-formaldehyde gels and transferred onto membranes that were then hybridized with ^32P-labelled ErbB2 and ESX cDNA probes. For transcriptional run-off assays cell nuclei were first isolated from treated and control cells as described for the DNase I studies. […]
# [4] = system: NCI panel of 60 human cancer cell lines; conditions: NCI/DTP screen, 60 human cancer cell line panel; read-out: median cytotoxic concentration (LC50); cited from earlier work
# [5] = system: ErbB2 promoter; assay: Genomically integrated ErbB2 promoter-luciferase reporter screen in MCF/R06pGL-9 cells; assay type: cell-based, human; conditions: 24 h treatment
# Description: Reporter activity was assayed as follows: From T-150 or T-75 culture flasks, about […] cells/well were plated into a 96 well plate format for high-throughput screening. 24 hours post plating a test agent e.g. a drug from a combinatorial library, was added to the wells at various concentrations. Certain wells were used as controls (e.g. PBS or DMSO vehicle only). Replicate wells ([…] per drug concentration) were run. 24 hours after addition of the test agent the cells were lysed, a luciferase reagent was added and activity in each well was read using a high-throughput screening plate reader (labsystems Fluoroskan). Parallel plates were run for cell viability using an MTT assay (Sigma).
# A luciferase reporter plasmid (designated RO6pGL-luc) was constructed by inserting the ˜500 bp SmaI-SmaI fragment of the human ErbB2 proximal promoter (12) into the pGL3Basic plasmid driving a luciferase reporter gene, as has been described (10). R06pGL-luc and a plasmid expressing neomycin phosphotransferase were co-transfected into the MCF-7 cells (ATCC) using Effectene (Qiagen). Cells were selected for stable expression of luciferase and neomycin (G418)-resistance. […] The reaction was quantified by absorbance at 570 nm measured with a microplate reader (Molecular Devices) and the mean (±SD) optical density recorded after normalization by the vehicle treated controls. […]
compound,measurement,setting,value
"CC(/C=C/C(=O)NO)=C\[C@@H](C)C(=O)c1ccc(N(C)C)cc1 [TSA, trichostatin A]",ill effects,[1]; adult or embryonic mice,no ill effects
same,antitumor activity,"[1]; ip, sc, carcinogen-induced mammary cancer",potent antitumor activity
same,cell viability (MTT assay),"[2]; 24 hours exposure, TSA concentrations up to 50 μM",little impact on cell viability
same,cell viability (MTT assay),"[2]; dose <1 μM, within 24 h",does not impair cell viability
same,ectopic 185 kDa ErbB2 protein level,"[3]; MCF/HER2-18 cells (CMV promoter), same TSA treatment conditions",further stimulated
same,endogenous 185 kDa ErbB2 protein levels (normalized to α-tubulin),"[3]; SKBR3, MDA-453 and BT-474 cells, 24 hour, 0.4 μM TSA",marked decline
same,CC50,[4],> 10 µM
same,ErbB2 promoter-reporter (luciferase) activity,[5],significantly represses; also recorded: significant reduction of luciferase activity
